The test system of this assay is HT1080 viability, ATPLite luminescence, overnight. In words: viability of HT1080 fibrosarcoma cells – cell-based, ATPLite luminescence, set 2, cytotoxicity control for MT1-MMP activation inhibitor project, dose response (AID 652246).

Drawing on PubChem BioAssay AID652246 (Sanford-Burnham Center for Chemical Genomics, 2013), this text covers IC50 for 21 compounds.

SMILES strings stand for the structures. Calls of active or inactive are those of the source. How the calls were made is not given here. A value given as a limit tells only on which side of the number the result lay.

For `COc1cc(-c2cc(=O)c3c(O)c(OC)c(OC)cc3o2)cc(OC)c1O`, the IC50 was > 80 µM (inactive). As to `CN(CCCC(=O)O)c1ccc(N=Nc2ccc([N+](=O)[O-])cc2)cc1`, the IC50 was 15.8 µM. `CN1/C(=C/C=C/c2n(C)c3cc([N+](=O)[O-])c([N+](=O)[O-])cc3[n+]2C)C(C)(C)c2ccccc21`: the IC50 is 39.5 µM (inactive).

Regarding `COc1ccc(OCC(=O)NNc2c3ccccc3nc3ccccc23)cc1`, the IC50 was > 80 µM (inactive). As for `Oc1ccc(N=Nc2c(O)ccc3ccccc23)cc1`, the IC50 is 54.8 µM (inactive).

Regarding `CN1/C(=C\C(=O)c2cncc(Br)c2)C(C)(C)c2ccccc21`, the IC50 was 30.2 µM (inactive). The value for `Nc1nc(-c2ccccc2)c(N=Nc2ccccc2Cl)s1` was > 80 µM (inactive); that for `Cn1cccc1/C=C1/C(=O)NC(=S)N(Cc2ccc(F)cc2)C1=O` was > 80 µM (inactive). With `COc1ccccc1N=Nc1nc(-c2ccccc2)c(-c2ccccc2)[nH]1`, the IC50 was > 80 µM (inactive).

`CC[n+]1c(/C=C/Nc2ccccc2)sc2ccccc21`: the IC50 was > 80 µM (inactive). `Cc1c(C(=O)O)c(O)cc2c1C(=O)c1c(O)c([C@@H]3O[C@H](CO)[C@@H](O)[C@H](O)[C@H]3O)c(O)c(O)c1C2=O`: the IC50 is > 80 µM (inactive). In the case of `CCN1C(=O)/C(=C2\C=Cc3ccccc3N2CC)SC1=S`, the IC50 was > 80 µM (inactive). As for `O=C(NNc1c2ccccc2nc2ccccc12)c1ccccc1O`, the IC50 was > 80 µM (inactive). `COc1ccc2nc(-n3c(O)c(C4=c5ccccc5=NC4=O)[nH]c3=S)sc2c1`: the IC50 was > 80 µM (inactive). The figure for `C[n+]1c2ccccc2nc2ccc(NCCO)cc21` is > 80 µM (inactive).

With `Cc1ccc(C(=O)NNc2c3ccccc3nc3ccccc23)cc1`, the IC50 is > 80 µM (inactive). In the case of `CN1/C(=C\C=N\NC(=O)c2ccc(O)cc2)C(C)(C)c2ccccc21`, the IC50 was > 80 µM (inactive). Turning to `O=S(=O)(O)c1cc(O)c(N=Nc2ccc(O)cc2O)c2ccccc12`, the IC50 was 30.5 µM (inactive). For `O=c1cc2oc3cc(O)c(O)cc3c(-c3ccccc3[N+](=O)[O-])c-2cc1O`, the IC50 was > 80 µM (inactive). `O=c1ccc2c(-c3ccccc3S(=O)(=O)O)c3ccc(O)c(O)c3oc-2c1O`: the IC50 was > 80 µM (inactive). For the compound `CN(C)/C=C/c1oc2ccc(O)cc2c1[N+](=O)[O-]`, the IC50 is > 80 µM (inactive).
